carotenoid/retinal binding ratio and carotenoid binding data for one molecule are collected here from PMC9151804, “Carotenoid binding in Gloeobacteria rhodopsin provides insights into divergent evolution of xanthorhodopsin types” (Communications Biology, 2022).

Holding throughout (assay): co-expression in E. coli, purification, chromophore extraction and absorbance
What all share (assay type): binding
Holding throughout (conditions): all-trans-retinal-bound protein; 0.02% DDM, 150 mM NaCl, 50 mM Tris, pH 7.0

The target of test [1] is T1, Gloeobacter rhodopsin (GR) (Gloeobacter violaceus, UniProt Q7NP59, F185G).
T1 construct: gene gll0198
T1 sequence (Q7NP59 entry or part of it F185G): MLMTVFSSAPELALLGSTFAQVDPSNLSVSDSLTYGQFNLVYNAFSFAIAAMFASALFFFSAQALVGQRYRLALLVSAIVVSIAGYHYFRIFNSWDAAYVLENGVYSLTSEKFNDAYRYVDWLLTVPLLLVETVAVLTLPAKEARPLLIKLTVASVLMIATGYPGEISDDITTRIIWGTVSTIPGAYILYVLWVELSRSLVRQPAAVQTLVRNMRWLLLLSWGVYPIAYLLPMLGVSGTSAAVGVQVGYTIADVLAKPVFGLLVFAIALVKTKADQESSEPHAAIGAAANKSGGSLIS

Test [2] concerns the target T2, Gloeobacter rhodopsin (GR) (Gloeobacter violaceus, UniProt Q7NP59, P226G).
T2 construct: gene gll0198

In test [3] the target is T3, Gloeobacter rhodopsin (GR) (Gloeobacter violaceus, UniProt Q7NP59).
T3 construct: gene gll0198
T3 sequence (Q7NP59 1-298): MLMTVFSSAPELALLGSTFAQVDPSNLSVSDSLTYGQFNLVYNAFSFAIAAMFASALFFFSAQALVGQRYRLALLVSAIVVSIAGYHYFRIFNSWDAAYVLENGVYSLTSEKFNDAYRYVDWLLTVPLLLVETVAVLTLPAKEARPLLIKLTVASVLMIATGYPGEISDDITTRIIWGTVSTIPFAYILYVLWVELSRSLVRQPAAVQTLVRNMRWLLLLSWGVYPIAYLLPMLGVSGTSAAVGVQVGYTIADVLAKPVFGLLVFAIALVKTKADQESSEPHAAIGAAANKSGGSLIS

In test [4] the target is T4, Gloeobacter rhodopsin (GR) (Gloeobacter violaceus, UniProt Q7NP59, P226G/I227G).
T4 construct: gene gll0198
T4 sequence (Q7NP59 entry or part of it P226G/I227G): as the sequence (Q7NP59 entry or part of it F185G) above, with G185F, P226G, I227G counted along it

Test [5] has as its target T5, Gloeobacter rhodopsin (GR) (Gloeobacter violaceus, UniProt Q7NP59, I227G).
T5 construct: gene gll0198

For test [6], the target named is T6, Gloeobacter rhodopsin (GR) (Gloeobacter violaceus, UniProt Q7NP59, T179G/T182G).
T6 construct: gene gll0198
T6 sequence (Q7NP59 entry or part of it T179G/T182G): as the sequence (Q7NP59 entry or part of it F185G) above, with T179G, T182G, G185F counted along it

Test [7] concerns the target T7, Gloeobacter rhodopsin (GR) (Gloeobacter violaceus, UniProt Q7NP59, T179G/T182G/F185G).
T7 construct: gene gll0198

For test [8], the target named is T8, Gloeobacter rhodopsin (GR) (Gloeobacter violaceus, UniProt Q7NP59, S221G).
T8 construct: gene gll0198
T8 sequence (Q7NP59 entry or part of it S221G): as the sequence (Q7NP59 entry or part of it F185G) above, with G185F, S221G counted along it

Test [9] deals with T9, Gloeobacter rhodopsin (GR) (Gloeobacter violaceus, UniProt Q7NP59, T179G).
T9 construct: gene gll0198
T9 sequence (Q7NP59 entry or part of it T179G): as the sequence (Q7NP59 entry or part of it F185G) above, with T179G, G185F counted along it

In test [10] the target is T10, Gloeobacter rhodopsin (GR) (Gloeobacter violaceus, UniProt Q7NP59, S181G).
T10 construct: gene gll0198
T10 sequence (Q7NP59 entry or part of it S181G): as the sequence (Q7NP59 entry or part of it F185G) above, with S181G, G185F counted along it

For test [11], the target named is T11, Gloeobacter rhodopsin (GR) (Gloeobacter violaceus, UniProt Q7NP59, G178W).
T11 construct: gene gll0198
T11 sequence (Q7NP59 entry or part of it G178W): as the sequence (Q7NP59 entry or part of it F185G) above, with G178W, G185F counted along it

T2 sequence (Q7NP59 entry or part of it P226G): as the sequence (Q7NP59 entry or part of it F185G) above, with G185F, P226G counted along it
T5 sequence (Q7NP59 entry or part of it I227G): as the sequence (Q7NP59 entry or part of it F185G) above, with G185F, I227G counted along it
T7 sequence (Q7NP59 entry or part of it T179G/T182G/F185G): as the sequence (Q7NP59 entry or part of it F185G) above, with T179G, T182G counted along it

Consider `CC1=C(/C=C/C(C)=C/C=C/C(C)=C/C=C/C=C(C)/C=C/C=C(C)/C=C/C2=C(C)C(=O)CCC2(C)C)C(C)(C)CCC1=O` [canthaxanthin], for which the carotenoid/retinal binding ratio in test [1] is listed as ~ 37%; in test [2] it was ~ 48%; in test [3], ~ 87%; in test [4], ~ 29%; in [5] it was ~ 42%; in [6] it was ~ 19%. In addition, the carotenoid/retinal binding ratio in test [7] was ~ 5%; in test [8], ~ 69%; in test [9], ~ 41%; in [10] it was “All mutants critical affect the carotenoid binding but not S181G”. The carotenoid binding result in test [11] was “with retinal and carotenoid showed no carotenoid binding in the absorption spectrum”.
